Assay: Metabolism of APAZA and sulfasalazine following oral delivery to rats (urine and feces, HPLC)
Settings: rat
Experimental: The degradation of the APAZA™ therapeutic agent (5-(4-carboxymethyl-phenylazo)-2-hydroxy-benzoic acid), and sulfasalazine (used as a control) and the generation of their metabolites when these compounds were orally dosed to rats were measured to be able to confirm that both the APAZA™ therapeutic agent and sulfasalazine undergo bacterial azo reduction and yield their metabolites, 5-aniinosalicylic acid (5-ASA) and sulfapyridine for sulfasalazine, 5-aminosalicylic acid (5-ASA) and 4-aminophenyl acetic acid (4-APAA) for the APAZA™ therapeutic agent.
This experiment was performed to confirm that an azo compound, the APAZA™ therapeutic agent, undergoes a bacterial reduction process and yields its metabolites in in-vivo metabolism. The quantification of its metabolites was also carried out. Sulfasalazine, not part of the present invention, was used as a control since similar azo bond cleavage by bacteria occurs with it, which results in 5-aminosalicylic acid and sulfapyridine as its metabolites. Both the APAZA™ therapeutic agent and sulfasalzine were degraded and their metabolites were produced as expected.
A total of 8 rats were used for the experiment and methylcellulose was used as a vehicle. The dosage amount was 100 mg/kg per rat. […] Both urine and feces were collected over 4 days and analyzed by HPLC. […]

Nc1ccc(O)c(C(=O)O)c1 [5-ASA, 5-amino-2-hydroxy-benzoic acid, reference compound]
conversion of 5-ASA in vivo: quickly converted to acetylated 5-ASA
